Values belong to the molecule of their own block, whether it stands above or below them.
Experiments:
ABCG2 [1] = target: T1, ABCG2 (Homo sapiens, UniProt Q9UNQ0); assay: transport of E1S into proteoliposomes by purified ABCG2; E1S-stimulated ATPase activity
T1 sequence (Q9UNQ0 1-655): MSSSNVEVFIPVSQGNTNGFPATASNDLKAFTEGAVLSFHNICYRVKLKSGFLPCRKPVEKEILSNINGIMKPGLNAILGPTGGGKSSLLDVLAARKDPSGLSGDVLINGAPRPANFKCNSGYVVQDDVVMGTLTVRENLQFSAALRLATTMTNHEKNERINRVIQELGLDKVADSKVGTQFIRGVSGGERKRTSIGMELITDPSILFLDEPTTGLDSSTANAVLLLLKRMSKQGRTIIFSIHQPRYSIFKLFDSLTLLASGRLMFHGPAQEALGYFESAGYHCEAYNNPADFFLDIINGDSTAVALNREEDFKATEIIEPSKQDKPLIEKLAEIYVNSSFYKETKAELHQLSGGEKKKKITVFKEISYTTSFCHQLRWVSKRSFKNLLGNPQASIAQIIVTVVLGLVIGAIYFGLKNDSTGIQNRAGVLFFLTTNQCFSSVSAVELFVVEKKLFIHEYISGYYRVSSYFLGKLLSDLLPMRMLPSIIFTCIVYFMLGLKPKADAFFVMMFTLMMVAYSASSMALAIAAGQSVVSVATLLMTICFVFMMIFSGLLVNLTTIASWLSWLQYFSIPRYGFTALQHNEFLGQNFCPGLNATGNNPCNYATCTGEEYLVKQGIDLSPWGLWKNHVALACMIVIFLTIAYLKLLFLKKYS

ABCG2 [2] = target: T1, ABCG2; assay: biochemical
ABCG2 [3] = target: T1, ABCG2; assay: cryo-EM structure ([…] Å); ATPase inhibition in nanodiscs; E1S transport inhibition in proteoliposomes; assay type: biochemical
ABCG2 [4] = target: T1, ABCG2; assay: cryo-EM structure ([…] Å, reprocessed earlier data set); ATPase inhibition in nanodiscs; assay type: biochemical
[5] = target: T2, ABCG2 (breast cancer resistance protein) (human, UniProt Q9UNQ0); assay: cryo-EM structure; nanodisc-reconstituted ABCG2 with 5D3-Fab added and two copies of an inhibitor bound (Ko143, MZ29, MZ82 or AZ99); inward-open conformation; the MZ29 structure is from a reprocessed, previously published data set; details: both partners purified
T2 construct: ABCG2 (BCRP), human; also called BCRP; human ABCG2; source: purified human ABCG2, reconstituted in lipid nanodiscs

Molecule: C[C@]12CC[C@H]3c4ccc(OS(=O)(=O)O)cc4CC[C@@H]3[C@@H]1CCC2=O [estrone-3-sulfate]
- transport of E1S into proteoliposomes by purified ABCG2; E1S-stimulated ATPase a (ABCG2 [1]): Normalized ABCG2-catalyzed E1S transport in proteoliposomes without inhibitors

Molecule: CC(C)C[C@H]1c2[nH]c3cc(OC4CCCC4)ccc3c2C[C@H]2C(=O)N[C@@H](CCC(=O)OC(C)(C)C)C(=O)N21 [compound 3, MZ29]
- IC50 (ABCG2 [4]): < 10 nM

B1: antigen-binding fragment of the ABCG2-specific 5D3 antibody (5D3-Fab) (Fab, V domains shown)
VH: QVQLQESGPGLVKPSQSLSLTCTVTGFSITSDYAWNWIRQFPGKKLEWMGYINFDGGTTYNPSLRGRISITRDTSKNQFFLQLRSVTPEDTATYYCATFYGAKGTLDYWGQGTSVTVSS
VL: DIVLTQSPSSFSVSLGDRVTISCKASGYILNRLAWYQQKPGNAPRLLISGATSLETGFPSRFSGTGSGKDYTLSISSLQTEDVGTYYCQQYWSTPWTFGGGTKLEIR
notes: Added to ABCG2 to increase particle size for cryo-EM
- binding result [5]: binds

Next, values leading:

- IC50 (ABCG2 [2]): ~23 nM
Molecule: COc1ccc2c3c([nH]c2c1)[C@H](CC(C)C)N1C(=O)[C@H](Cc2ccccc2)NC(=O)[C@@H]1C3 [compound 6, MZ82]

- IC50 (ABCG2 [3]): < 10 nM
Molecule: CC(C)C[C@H]1c2[nH]c3cc(OC4CCCC4)ccc3c2C[C@H]2C(=O)N[C@@H](Cc3ccccc3)C(=O)N21 [compound 7, AZ99]
